ChEMBL document CHEMBL1201862, “PubChem BioAssay data set” (2004)
The source made the active and inactive calls.

Experiments:
[1] = viability of BHK-21 cells – cell-based, secondary screen, cytotoxicity control for flavivirus guanylyltransferase probe project (AID 624078); type: functional
[2] = target: Cysteine protease ATG4B (Homo sapiens, UniProt Q9Y4P1); type: functional;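 also: Fluorescence-based dose-response confirmation assay measuring inhibition of ATG4B activity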
[3] = target: T1, Sentrin-specific protease 8 (Homo sapiens, UniProt Q96LD8); type: functional
T1 sequence (Q96LD8 whole entry): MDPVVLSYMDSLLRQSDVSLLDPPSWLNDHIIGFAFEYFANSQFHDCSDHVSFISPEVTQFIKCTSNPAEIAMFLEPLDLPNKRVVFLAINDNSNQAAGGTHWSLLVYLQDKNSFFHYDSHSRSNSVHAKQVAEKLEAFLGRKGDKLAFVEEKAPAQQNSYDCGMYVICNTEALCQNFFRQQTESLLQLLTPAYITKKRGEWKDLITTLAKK

[4] = target: T2, Histone-lysine N-methyltransferase NSD2 (Homo sapiens, UniProt O96028); type: biochemical
T2 sequence (O96028 whole entry): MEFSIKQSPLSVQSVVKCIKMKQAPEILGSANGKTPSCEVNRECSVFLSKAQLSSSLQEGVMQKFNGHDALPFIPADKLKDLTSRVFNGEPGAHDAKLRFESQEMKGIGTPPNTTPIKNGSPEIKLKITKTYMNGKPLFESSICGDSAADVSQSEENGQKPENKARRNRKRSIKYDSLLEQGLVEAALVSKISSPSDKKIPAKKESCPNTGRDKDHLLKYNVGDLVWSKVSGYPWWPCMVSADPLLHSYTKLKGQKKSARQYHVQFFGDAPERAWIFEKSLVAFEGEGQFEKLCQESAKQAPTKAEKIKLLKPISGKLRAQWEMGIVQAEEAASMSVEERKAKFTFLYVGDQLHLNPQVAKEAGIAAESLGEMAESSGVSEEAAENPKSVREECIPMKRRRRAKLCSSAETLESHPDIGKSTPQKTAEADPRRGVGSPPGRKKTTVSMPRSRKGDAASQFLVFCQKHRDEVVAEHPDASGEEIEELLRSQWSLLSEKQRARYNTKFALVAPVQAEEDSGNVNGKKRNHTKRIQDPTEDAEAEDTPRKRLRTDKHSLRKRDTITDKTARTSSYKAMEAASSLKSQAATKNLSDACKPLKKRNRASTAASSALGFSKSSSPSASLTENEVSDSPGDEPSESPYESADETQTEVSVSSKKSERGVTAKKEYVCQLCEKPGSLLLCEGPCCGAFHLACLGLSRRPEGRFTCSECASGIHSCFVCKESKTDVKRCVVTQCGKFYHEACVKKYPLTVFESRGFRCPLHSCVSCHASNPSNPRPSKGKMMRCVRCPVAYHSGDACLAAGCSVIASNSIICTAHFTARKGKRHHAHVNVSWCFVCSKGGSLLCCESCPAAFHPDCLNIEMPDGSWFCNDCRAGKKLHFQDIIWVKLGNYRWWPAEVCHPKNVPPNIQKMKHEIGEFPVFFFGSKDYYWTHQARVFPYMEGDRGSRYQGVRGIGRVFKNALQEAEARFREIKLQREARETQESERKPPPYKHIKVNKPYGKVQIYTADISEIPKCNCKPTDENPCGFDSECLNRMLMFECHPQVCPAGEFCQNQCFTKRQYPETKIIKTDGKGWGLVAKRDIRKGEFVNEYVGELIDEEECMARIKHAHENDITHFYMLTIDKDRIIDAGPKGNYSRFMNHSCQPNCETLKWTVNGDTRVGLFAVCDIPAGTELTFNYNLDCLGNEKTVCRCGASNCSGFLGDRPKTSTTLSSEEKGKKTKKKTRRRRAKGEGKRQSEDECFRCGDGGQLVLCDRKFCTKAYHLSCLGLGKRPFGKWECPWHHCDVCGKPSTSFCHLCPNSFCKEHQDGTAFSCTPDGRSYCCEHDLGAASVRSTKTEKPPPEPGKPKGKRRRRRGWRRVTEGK

[5] = target: 1-phosphatidylinositol 4,5-bisphosphate phosphodiesterase beta-3 (Homo sapiens, UniProt Q01970); assay: Fluorescence-based biochemical high throughput dose response assay to identify inhibitors of phospholipase C isozymes (PLC-B3).
[6] = target: Heat shock protein HSP 90-alpha (Homo sapiens, UniProt P07900); type: functional, organism-based
[7] = target: Tyrosyl-DNA phosphodiesterase 2 (Homo sapiens, UniProt O95551); assay: potency against TDP2 phosphodiesterase activity – biochemical, epi absorbance, IC50, dose response (AID 743297)
[8] = viability loss in HeLa cells – cytotoxicity control for MgcRacGAP inhibitor project, dose response (AID 624300); type: functional
[9] = target: 1-phosphatidylinositol 4,5-bisphosphate phosphodiesterase gamma-1 (Homo sapiens, UniProt P19174); assay: Counterscreen for inhibitors of phospholipase C isozymes (PLC-B3): Fluorescence-based biochemical high throughput dose response assay to identify inhibitors of phospholipase C isozymes (PLC-gamma1).
[10] = target: T3, Rac GTPase-activating protein 1 (Homo sapiens, UniProt Q9H0H5); assay: blockers of MgcRacGAP-driven Rac1 GTP hydrolysis – biochemical, ADP Hunter fluorescence, primary and confirmatory, confirmation (AID 624330); type: functional
T3 sequence (Q9H0H5 whole entry): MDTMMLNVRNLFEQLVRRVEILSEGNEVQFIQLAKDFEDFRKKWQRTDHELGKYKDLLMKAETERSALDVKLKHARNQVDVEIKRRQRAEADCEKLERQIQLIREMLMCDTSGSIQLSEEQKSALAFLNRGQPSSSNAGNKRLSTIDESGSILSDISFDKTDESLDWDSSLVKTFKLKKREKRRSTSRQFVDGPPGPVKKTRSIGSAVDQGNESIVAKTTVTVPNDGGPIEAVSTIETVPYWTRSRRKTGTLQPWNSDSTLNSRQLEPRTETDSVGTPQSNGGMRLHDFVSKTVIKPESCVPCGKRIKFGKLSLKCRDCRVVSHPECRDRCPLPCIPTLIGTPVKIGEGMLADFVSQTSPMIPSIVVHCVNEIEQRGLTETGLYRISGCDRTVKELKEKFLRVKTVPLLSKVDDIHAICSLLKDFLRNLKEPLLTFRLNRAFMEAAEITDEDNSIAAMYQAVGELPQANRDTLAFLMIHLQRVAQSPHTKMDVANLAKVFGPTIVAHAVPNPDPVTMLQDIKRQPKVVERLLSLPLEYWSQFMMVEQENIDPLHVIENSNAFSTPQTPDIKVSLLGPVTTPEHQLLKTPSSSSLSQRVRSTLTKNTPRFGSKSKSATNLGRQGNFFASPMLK

[11] = target: Genome polyprotein (dengue virus type 2, UniProt P29990); assay: flavivirus cap methylation enzyme inhibition – biochemical, confirmation dose response, primary screen (AID 588689); type: functional
[12] = system: Vero; assay: viability of Vero cells under compound – cytotoxicity control for flavivirus capping enzyme inhibitors (AID 588742); type: functional; settings: Chlorocebus sabaeus
[13] = Fluorescence-based cell-based high throughput dose response assay for inhibitors of the interaction of nucleotide-binding oligomerization domain containing 2 (NOD2) and the receptor-interacting serine-threonine kinase 2 (RIPK2).; type: functional; settings: Homo sapiens
[14] = target: Phospholipase A2 (Homo sapiens, UniProt P04054); type: functional;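 also: confirmatory dose-response counterscreen on phospholipase A2, testing hits that came from an ultra-high-throughput screen for ATG4B inhibitors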
[15] = target: T1, Sentrin-specific protease 8; type: functional; remark: listed apart in the source
[16] = target: Beta-galactosidase (Escherichia coli, UniProt Q8VNN2); assay: detection-enzyme interference by beta-gal modulators – biochemical, E. coli enzyme, set 3, artefact control for CCR6 antagonist project, dose response (AID 504712); type: functional
[17] = cells
[18] = inhibitors of non-replicating M. tuberculosis, dose response, luciferase, dry powder (AID 651620); type: functional; settings: Mycobacterium tuberculosis
[19] = inhibitors of non-replicating M. tuberculosis, dose response, luciferase, dry powder (AID 651619); type: functional; settings: Mycobacterium tuberculosis
[20] = target: T4, Runt-related transcription factor 1/Core-binding factor subunit beta (Homo sapiens, UniProt Q01196+Q13951); assay: disruptors of Runt domain/CBFb-SMMHC interaction – biochemical, FRET, Cerulean-Runt, Venus-CBFb-SMMHC, uHTS, […] (AID 1434); type: protein assay
[21] = target: T4, Runt-related transcription factor 1/Core-binding factor subunit beta; assay: Runt domain/CBFb-SMMHC interaction disruptors – biochemical, TR-FRET (AID 1438); type: protein assay
[22] = cells; settings: A549
[23] = cells; settings: HEK293
[24] = viability loss in HepG2 liver cells – cell-based, ATP luminescence, cherry-pick, set 6, cytotoxicity control, dose response (AID 1053125); type: functional
[25] = NIH3T3 cell viability loss – ATP luminescence, mouse fibroblasts, counter-screen, dose response (AID 2010); type: functional, cell-based;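 also: cells exposed to compound for about 90 hours before reading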
[26] = Trypanosoma cruzi growth suppression in host cells – NIH3T3 host cells, beta-gal luminescence, confirmation (AID 2044); type: functional, cell-based;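 also: intracellular parasites grown in NIH/3T3 mouse fibroblasts as host cells; luminescent beta-galactosidase reporter signal from transgenic T. cruzi replicating inside host cells; inhibitors lower the luminescence signal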
[27] = target: Kallikrein-7 (Homo sapiens, UniProt P49862); assay: Fluorescence Intensity-based biochemical primary high throughput dose response assay to identify activators of kallikrein-7 (K7) zymogen.
[28] = target: Protein disulfide-isomerase A6 (Homo sapiens, UniProt Q15084); assay: reduced insulin turbidity driven by ERp5 (PDIA6) – biochemical, absorbance 650 nm, cherry-picked samples, dose response (AID 720566)
[29] = A549 cell viability loss – cherry-picked samples, cytotoxicity control, dose response (AID 1053184); type: functional, cell-based
[30] = system: BJ; assay: BJ-TERT fibroblast viability loss – cell-based, RAS-independent, luminescence, dose response (AID 1933); type: functional; settings: Homo sapiens
[31] = toxicity toward HEK293 cells – cell-based, dry powder samples, cytotoxicity control, dose response (AID 720567); type: functional
[32] = system: BJ; assay: cells; type: functional, cell-based; settings: Homo sapiens
[33] = DRD fibroblast viability loss – cell-based, non-viral oncogenic, luminescence, dose response (AID 1934); type: functional; settings: Homo sapiens
[34] = system: BJ; assay: BJ-TERT-LT-ST fibroblast viability loss – cell-based, RAS-independent, luminescence, dose response (AID 1935); type: functional; settings: Homo sapiens;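 also: BJ fibroblasts immortalized with TERT plus LT and ST oncogenes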
[35] = toxicity toward HepG2 hepatoma cells – cell-based, dry powder samples, cytotoxicity control, dose response (AID 720568); type: functional
[36] = IC50 of Artemis nuclease activity blockers – biochemical, fluorescence intensity, dose response (AID 720701); type: functional;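 also: Artemis endonuclease enzyme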
[37] = target: Bcl-2-like protein 10 (Homo sapiens, UniProt Q9HD36); assay: Bcl-B/TR3 peptide binding disruption – biochemical, fluorescence polarization, FITC-TR3 peptide, selectivity assay for Bfl-1 inhibitor project, primary screen (AID 748);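 also: fluorescence polarization from a fluorescein-labelled TR3 peptide binding purified Bcl-B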
[38] = Late stage counterscreen for inhibitors of Trypanosoma brucei methionyl tRNA synthetase (MetRS): Luminescence-based cell-based high throughput dose response assay to identify compounds that are cytotoxic to Jurkat human T lymphocyte cells.; type: functional
[39] = target: Sphingosine 1-phosphate receptor 1 (Homo sapiens, UniProt P21453); assay: Late-stage counterscreen for antagonists of kappa opioid receptor 1 (OPRK1): fluorescence-based cell-based dose response assay to identify antagonists of Sphingosine 1-Phosphate Receptor 1 (S1P1).; type: functional
[40] = target: Kappa-type opioid receptor (Homo sapiens, UniProt P41145); assay: Late-stage fluorescence-based cell-based dose response assay for antagonists of kappa opioid receptor 1 (OPRK1).; type: functional
[41] = target: Mu-type opioid receptor (Homo sapiens, UniProt P35372); assay: Late-stage results from the probe development effort to identify antagonists of OPRK1: luminescence-based cell-based dose response OPRM1 counterscreen, Set 2.; type: functional
[42] = target: Delta-type opioid receptor (Homo sapiens, UniProt P41143); assay: Late-stage results from the probe development effort to identify antagonists of OPRK1: fluorescence-based cell-based dose response OPRD1 counterscreen, Set 2.; type: functional
Sequence of Delta-type opioid receptor (P41143 whole entry): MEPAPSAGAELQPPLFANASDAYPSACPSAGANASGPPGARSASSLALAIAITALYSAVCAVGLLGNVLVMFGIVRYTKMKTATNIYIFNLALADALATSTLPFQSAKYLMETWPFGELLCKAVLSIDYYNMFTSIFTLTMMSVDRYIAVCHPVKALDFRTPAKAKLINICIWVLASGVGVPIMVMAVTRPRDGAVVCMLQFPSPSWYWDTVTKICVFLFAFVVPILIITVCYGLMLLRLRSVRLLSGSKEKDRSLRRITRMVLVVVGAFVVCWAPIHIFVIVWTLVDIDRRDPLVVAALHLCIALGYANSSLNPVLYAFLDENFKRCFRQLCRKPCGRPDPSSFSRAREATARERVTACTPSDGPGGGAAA

T4 sequence (Q01196 whole entry, the tested form may be a part): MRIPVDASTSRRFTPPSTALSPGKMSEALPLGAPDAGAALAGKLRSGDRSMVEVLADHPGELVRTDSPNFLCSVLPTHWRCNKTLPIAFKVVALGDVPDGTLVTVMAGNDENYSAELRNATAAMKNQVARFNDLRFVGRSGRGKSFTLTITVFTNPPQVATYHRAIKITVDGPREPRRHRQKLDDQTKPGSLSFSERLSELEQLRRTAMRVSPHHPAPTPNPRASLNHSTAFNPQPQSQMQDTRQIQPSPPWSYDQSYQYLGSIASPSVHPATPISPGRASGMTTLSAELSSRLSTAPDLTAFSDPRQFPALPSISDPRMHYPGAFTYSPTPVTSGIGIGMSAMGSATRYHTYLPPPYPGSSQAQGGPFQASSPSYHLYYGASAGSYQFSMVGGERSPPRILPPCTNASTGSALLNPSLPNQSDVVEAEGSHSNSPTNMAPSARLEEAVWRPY
T4 sequence (Q13951 whole entry, the tested form may be a part): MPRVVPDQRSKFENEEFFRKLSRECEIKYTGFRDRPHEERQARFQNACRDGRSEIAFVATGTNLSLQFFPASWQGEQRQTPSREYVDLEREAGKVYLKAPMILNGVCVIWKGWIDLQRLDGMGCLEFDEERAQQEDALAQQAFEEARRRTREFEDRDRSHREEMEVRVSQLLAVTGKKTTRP
Sequence of Tyrosyl-DNA phosphodiesterase 2 (O95551 whole entry): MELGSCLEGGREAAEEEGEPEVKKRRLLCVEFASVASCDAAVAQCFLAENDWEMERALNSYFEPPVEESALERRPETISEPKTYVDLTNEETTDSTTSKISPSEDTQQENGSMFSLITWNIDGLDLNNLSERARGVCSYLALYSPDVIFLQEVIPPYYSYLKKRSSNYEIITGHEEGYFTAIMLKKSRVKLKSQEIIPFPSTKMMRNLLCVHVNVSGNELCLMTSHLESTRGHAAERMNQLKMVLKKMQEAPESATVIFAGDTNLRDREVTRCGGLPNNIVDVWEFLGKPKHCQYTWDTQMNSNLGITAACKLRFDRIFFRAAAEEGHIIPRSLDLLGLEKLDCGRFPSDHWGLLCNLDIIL
Sequence of 1-phosphatidylinositol 4,5-bisphosphate phosphodiesterase gamma-1 (P19174 whole entry): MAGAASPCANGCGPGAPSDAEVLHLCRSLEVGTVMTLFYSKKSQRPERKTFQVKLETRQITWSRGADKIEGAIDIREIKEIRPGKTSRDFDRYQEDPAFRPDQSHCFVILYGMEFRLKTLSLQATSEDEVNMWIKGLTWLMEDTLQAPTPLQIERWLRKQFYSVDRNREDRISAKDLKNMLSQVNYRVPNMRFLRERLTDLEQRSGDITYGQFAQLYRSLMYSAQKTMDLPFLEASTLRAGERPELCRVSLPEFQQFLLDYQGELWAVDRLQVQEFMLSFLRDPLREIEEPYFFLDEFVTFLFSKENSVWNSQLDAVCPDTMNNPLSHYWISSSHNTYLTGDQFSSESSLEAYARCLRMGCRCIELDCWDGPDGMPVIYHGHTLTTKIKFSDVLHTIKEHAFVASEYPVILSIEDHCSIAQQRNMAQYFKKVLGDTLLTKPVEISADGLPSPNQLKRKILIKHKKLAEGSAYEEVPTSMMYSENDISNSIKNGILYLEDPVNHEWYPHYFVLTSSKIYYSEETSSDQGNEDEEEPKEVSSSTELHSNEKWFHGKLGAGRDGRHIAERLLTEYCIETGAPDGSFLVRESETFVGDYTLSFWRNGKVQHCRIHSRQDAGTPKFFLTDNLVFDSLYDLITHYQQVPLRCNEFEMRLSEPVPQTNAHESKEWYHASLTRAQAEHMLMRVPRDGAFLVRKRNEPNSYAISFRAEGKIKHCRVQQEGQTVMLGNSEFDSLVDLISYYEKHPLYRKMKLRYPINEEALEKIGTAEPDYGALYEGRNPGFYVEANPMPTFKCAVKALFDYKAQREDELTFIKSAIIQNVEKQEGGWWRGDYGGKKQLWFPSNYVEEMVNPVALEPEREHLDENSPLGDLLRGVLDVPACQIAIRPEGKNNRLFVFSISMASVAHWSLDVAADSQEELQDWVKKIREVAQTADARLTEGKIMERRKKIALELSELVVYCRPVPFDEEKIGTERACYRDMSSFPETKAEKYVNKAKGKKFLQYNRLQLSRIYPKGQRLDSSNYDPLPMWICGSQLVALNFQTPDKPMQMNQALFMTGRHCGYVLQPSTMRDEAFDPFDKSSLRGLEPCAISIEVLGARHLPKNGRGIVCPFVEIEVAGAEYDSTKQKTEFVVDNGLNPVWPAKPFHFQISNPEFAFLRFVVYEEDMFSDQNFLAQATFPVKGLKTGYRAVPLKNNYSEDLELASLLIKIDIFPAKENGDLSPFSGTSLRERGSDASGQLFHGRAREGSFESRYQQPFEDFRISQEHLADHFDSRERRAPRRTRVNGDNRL
Sequence of 1-phosphatidylinositol 4,5-bisphosphate phosphodiesterase beta-3 (Q01970 whole entry): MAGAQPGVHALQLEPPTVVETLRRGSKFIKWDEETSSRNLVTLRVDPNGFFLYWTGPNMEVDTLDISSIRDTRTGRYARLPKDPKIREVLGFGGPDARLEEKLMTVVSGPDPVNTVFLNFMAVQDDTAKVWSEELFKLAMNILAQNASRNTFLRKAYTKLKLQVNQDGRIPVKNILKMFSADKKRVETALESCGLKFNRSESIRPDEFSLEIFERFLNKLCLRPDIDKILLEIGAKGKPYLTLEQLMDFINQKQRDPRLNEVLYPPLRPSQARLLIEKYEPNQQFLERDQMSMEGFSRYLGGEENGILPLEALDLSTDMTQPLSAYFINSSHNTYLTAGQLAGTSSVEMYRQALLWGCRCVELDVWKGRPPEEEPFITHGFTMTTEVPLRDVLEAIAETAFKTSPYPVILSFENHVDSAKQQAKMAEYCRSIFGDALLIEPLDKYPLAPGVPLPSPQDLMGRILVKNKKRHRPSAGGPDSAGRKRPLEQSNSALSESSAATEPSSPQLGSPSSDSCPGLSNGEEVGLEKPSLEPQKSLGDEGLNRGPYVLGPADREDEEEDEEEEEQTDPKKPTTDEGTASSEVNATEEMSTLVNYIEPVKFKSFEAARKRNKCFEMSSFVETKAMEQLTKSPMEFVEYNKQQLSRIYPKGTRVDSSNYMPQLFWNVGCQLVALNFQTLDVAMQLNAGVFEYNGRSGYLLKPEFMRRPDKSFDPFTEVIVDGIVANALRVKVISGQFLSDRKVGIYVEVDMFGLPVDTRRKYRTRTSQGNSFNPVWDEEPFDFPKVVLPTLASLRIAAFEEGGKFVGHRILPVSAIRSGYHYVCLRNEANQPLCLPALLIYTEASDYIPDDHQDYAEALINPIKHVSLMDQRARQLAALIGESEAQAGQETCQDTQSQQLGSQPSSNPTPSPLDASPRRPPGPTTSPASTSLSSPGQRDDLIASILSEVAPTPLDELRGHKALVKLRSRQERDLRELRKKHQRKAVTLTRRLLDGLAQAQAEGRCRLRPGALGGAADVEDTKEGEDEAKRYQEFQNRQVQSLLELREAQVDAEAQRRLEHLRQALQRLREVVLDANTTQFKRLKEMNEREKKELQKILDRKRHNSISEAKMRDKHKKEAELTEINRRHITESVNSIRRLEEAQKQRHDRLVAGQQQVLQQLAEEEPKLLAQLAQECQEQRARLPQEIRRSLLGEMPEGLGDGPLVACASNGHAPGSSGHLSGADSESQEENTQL
Sequence of Sphingosine 1-phosphate receptor 1 (P21453 whole entry): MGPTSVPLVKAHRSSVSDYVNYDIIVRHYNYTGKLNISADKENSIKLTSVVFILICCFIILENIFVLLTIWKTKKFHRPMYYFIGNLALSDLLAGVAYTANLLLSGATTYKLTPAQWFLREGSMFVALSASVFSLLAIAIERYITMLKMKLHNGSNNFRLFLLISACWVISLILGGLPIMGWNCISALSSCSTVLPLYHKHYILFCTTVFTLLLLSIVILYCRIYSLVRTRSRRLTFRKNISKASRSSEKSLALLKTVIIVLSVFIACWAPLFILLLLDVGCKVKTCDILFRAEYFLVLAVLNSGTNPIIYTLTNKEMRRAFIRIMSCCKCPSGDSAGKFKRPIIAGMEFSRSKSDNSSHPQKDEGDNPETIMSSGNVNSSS
Sequence of Cysteine protease ATG4B (Q9Y4P1 whole entry): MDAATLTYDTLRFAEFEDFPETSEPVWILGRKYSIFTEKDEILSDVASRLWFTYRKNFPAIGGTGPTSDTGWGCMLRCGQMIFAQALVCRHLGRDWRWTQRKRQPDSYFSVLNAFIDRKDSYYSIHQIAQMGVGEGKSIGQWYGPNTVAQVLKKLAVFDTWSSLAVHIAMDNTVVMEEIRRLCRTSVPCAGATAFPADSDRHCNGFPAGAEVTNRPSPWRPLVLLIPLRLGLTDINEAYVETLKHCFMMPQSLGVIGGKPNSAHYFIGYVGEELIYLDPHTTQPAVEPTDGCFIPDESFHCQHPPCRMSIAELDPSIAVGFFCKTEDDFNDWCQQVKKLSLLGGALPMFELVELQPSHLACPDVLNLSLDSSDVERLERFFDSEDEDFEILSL
Sequence of Bcl-2-like protein 10 (Q9HD36 whole entry): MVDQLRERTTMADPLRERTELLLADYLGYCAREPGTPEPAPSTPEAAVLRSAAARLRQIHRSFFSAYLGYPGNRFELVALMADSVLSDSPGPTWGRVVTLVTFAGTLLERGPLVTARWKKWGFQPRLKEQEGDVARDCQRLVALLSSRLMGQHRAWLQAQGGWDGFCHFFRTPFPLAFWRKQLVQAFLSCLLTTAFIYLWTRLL

Structure (SMILES): Cc1ccc(S(=O)(=O)Nc2cc(Sc3nc(C)cc(C)n3)c(O)c3ccccc23)cc1
- CC50 [1]: 20.9 µM (active)

Structure (SMILES): O=C1C(=C(I)I)c2ccccc2-c2ccccc21
- IC50 [2]: 7.13 µM (active)
- IC50 [3]: 1.74 µM (active)
- AC50 [4]: 2.24 µM (active)
- IC50 [5]: > 122 µM (inactive)
- AC50 [6]: 5.65 µM (active)
- IC50 [7]: 8.29 µM (active)
- CC50 [8]: 27.4 µM (active)
- IC50 [9]: > 122 µM (inactive)
- IC50 [10]: 19.8 µM (active)
- IC50 [11]: 29 µM (active)
- CC50 [12]: 15.3 µM (active)
- IC50 [13]: 1.2 µM (active)
- IC50 [14]: 58.1 µM (inactive)
- IC50 [15]: > 100 µM (inactive)
- IC50 [16]: > 66.6 µM (inactive)

Structure (SMILES): O=C(O)c1ccc(-c2ccc(/C=C3\NC(=O)N(Cc4ccc(Cl)cc4)C3=O)o2)cc1
- AC50 [17]: 1.78 µM (active)

Structure (SMILES): Fc1ccc(CSc2nnc(-c3ccc(Cl)cc3)o2)cc1
- IC90 [18]: 2 µM (active)
- IC90 [19]: 2 µM (active)

Structure (SMILES): COc1ccc(C2c3ccc(O)cc3Oc3ncn4nc(-c5ccccn5)nc4c32)cc1 (stereo not drawn)
- IC50 [20]: 22.9 µM (active)
- IC50 [21]: > 100 µM (inactive)
- AC50 [22]: > 52 µM (inactive)
- AC50 [23]: > 24 µM (inactive)

Structure (SMILES): N#Cc1c2ccc(O)cc2n2ccccc12
- AC50 [24]: > 52 µM (inactive)
- EC50 [25]: > 60 µM (not active)
- EC50 [26]: 0.68 µM (active)
- AC50 [23]: > 52 µM (inactive)

Structure (SMILES): C=C(C)Cn1c2ccc(NC(=O)NCc3ccccc3)cc2c(=O)n1C
- EC50 [27]: > 69.5 µM (inactive)

Structure (SMILES): Cc1cc(OCCCCOc2ccc(S(N)(=O)=O)c(C)c2)ccc1S(N)(=O)=O
- AC50 [28]: 45.5 µM (active)

Structure (SMILES): C[C@@H]1CN([C@@H](C)CO)C(=O)Cc2cc(NC(=O)C3CCCCC3)ccc2O[C@@H]1CN(C)Cc1ccc(Cl)c(Cl)c1
- AC50 [29]: 37.8 µM (active)

Structure (SMILES): COc1cc(C(=O)NCCOc2cc(C)cc(C)c2)cc(OC)c1OC
- EC50 [30]: 16.3 µM (active)
- AC50 [31]: 16.9 µM (active)
- EC50 [32]: 5.25 µM (active)
- EC50 [33]: 4.9 µM (active)
- EC50 [34]: 17.1 µM (inconclusive)
- AC50 [35]: 24.7 µM (active)

Structure (SMILES): Cc1cc(OCC(=O)Nc2ccc(N3CCCC3)cc2)cc(C)c1Cl
- IC50 [36]: > 20 µM (inactive)
- IC50 [37]: > 100 µM (inactive)

Structure (SMILES): O=C(CC=NOCc1ccc([N+](=O)[O-])cc1)Nc1ccc(Br)cc1
- IC50 [38]: > 83.3 µM (inactive)

Structure (SMILES): Clc1ccc2c(Nc3ccc4c(c3)OCO4)ccnc2c1
- IC50 [39]: > 50 µM (inactive)
- IC50 [40]: 13.8 µM (inactive)
- IC50 [41]: > 50 µM (inactive)
- IC50 [42]: > 50 µM (inactive)
